This note sets out measurements from US11825838B2, “Tricyclic carboxamides for controlling arthropods” (Bayer CropScience Aktiengesellschaft, priority 2017, dated 2023).

Common to all, as to assay type: in vivo
Test [1] concerns Anopheles funestus strain FUMOZ-R. The test can be described thus: Anopheles test (ANPHFU surface treatment). Conditions: application rate 100 mg/m^2, glazed tile, exposure 30 minutes, 24 hours after contact, read-out: efficacy (mortality). The protocol:
Anopheles Test (ANPHFU Surface Treatment)
(§1) Solvent: acetone+2000 ppm rapeseed oil methyl ester (RME)
To produce a suitable active compound formulation, the active compound is dissolved in the solvent (2 mg/ml). The active compound formulation is pipetted onto a glazed tile and, after it has dried off, adult mosquitoes of the species Anopheles funestus strain FUMOZ-R (Hunt et al., Med Vet Entomol. 2005 September; 19(3):271-5) are placed onto the treated tile. The exposure time is 30 minutes.
(§2) 24 hours after contact with the treated surface, mortality in % is determined. 100% means that all mosquitoes have been killed; 0% means that none of the mosquitoes have been killed.

Test [2] relates to Aedes aegypti strain MONHEIM. The test can be described thus: Aedes test (AEDSAE surface treatment). The conditions noted are these: application rate 100 mg/m^2, glazed tile, exposure 30 minutes, 24 hours after contact, read-out: efficacy (mortality). The protocol: Aedes Test (AEDSAE Surface Treatment)
as §1
To produce a suitable active compound formulation, the active compound is dissolved in the solvent (2 mg/ml). The active compound formulation is pipetted onto a glazed tile and, after it has dried off, adult mosquitoes of the species Aedes aegypti strain MONHEIM are placed onto the treated tile. The exposure time is 30 minutes.
as §2

A further test has as its system Phaedon cochleariae. Briefly: Phaedon cochleariae spray test (PHAECO). Conditions: Phaedon cochleariae, 168 h; application rate 100 g/ha, spray, after 7 days; read-out: efficacy. The protocol: Phaedon cochleariae—Spray Test
(§3) To produce a suitable active ingredient formulation, 1 part by weight of active ingredient is dissolved with the specified parts by weight of solvent and made up to the desired concentration with water containing an emulsifier concentration of 1000 ppm. To produce further test concentrations, the formulation is diluted with emulsifier-containing water.
After 7 days, the efficacy in % is determined. 100% means that all the beetle larvae have been killed; 0% means that no beetle larvae have been killed.
Phaedon cochleariae—Spray Test (PHAECO)
(§4) To produce a suitable active compound formulation, 1 part by weight of active compound is dissolved with the specified parts by weight of solvent and made up to the desired concentration with water containing an emulsifier concentration of 1000 ppm. To produce further test concentrations, the formulation is diluted with emulsifier-containing water.
Discs of Chinese cabbage leaves (Brassica pekinensis) are sprayed with an active compound formulation of the desired concentration and, after drying, populated with larvae of the mustard beetle (Phaedon cochleariae).
After the desired time, the efficacy in % is determined. 100% means that all the beetle larvae have been killed; 0% means that no beetle larvae have been killed.

Test [3] concerns Anopheles gambiae strain RSPH (homozygot kdr). The test can be described thus: Anopheles test (ANPHGB surface treatment). Conditions: application rate 100 mg/m^2, glazed tile, exposure 30 minutes, 24 hours after contact, read-out: efficacy (mortality). The protocol:
Anopheles Test (ANPHGB Surface Treatment)
as §1
To produce a suitable active compound formulation, the active compound is dissolved in the solvent (2 mg/ml). The active compound formulation is pipetted onto a glazed tile and, after it has dried off, adult mosquitoes of the species Anopheles gambiae strain RSPH (homozygot kdr) are placed onto the treated tile. The exposure time is 30 minutes.
as §2

In another test the test system is Spodoptera frugiperda. The test can be described thus: Spodoptera frugiperda spray test (SPODFR). The conditions noted are these: Spodoptera frugiperda, 168 h; application rate 100 g/ha, spray, after 7 days; read-out: efficacy. The protocol: Spodoptera frugiperda—Spray Test
as §3
Leaf discs of maize (Zea mays) are sprayed with an active ingredient formulation of the desired concentration and, after drying, populated with caterpillars of the armyworm (Spodoptera frugiperda).
After 7 days, the efficacy in % is determined. 100% means that all the caterpillars have been killed; 0% means that no caterpillar has been killed.
Spodoptera frugiperda—Spray Test (SPODFR)
as §4
Leaf discs of maize (Zea mays) are sprayed with an active compound formulation of the desired concentration and, after drying, populated with caterpillars of the armyworm (Spodoptera frugiperda).
After the desired time, the efficacy in % is determined. 100% means that all the caterpillars have been killed; 0% means that no caterpillar has been killed.

The subject of the next test is Musca domestica. The test can be described thus: Musca domestica test. The conditions noted are these: application rate 100 ppm, adult houseflies, after 2 days. The protocol: (§5) Solvent: dimethyl sulfoxide
(§6) To produce a suitable active ingredient formulation, 10 mg of active ingredient are mixed with 0.5 ml of dimethyl sulfoxide, and the concentrate is diluted with water to the desired concentration.
Vessels containing a sponge treated with sugar solution and the active ingredient formulation of the desired concentration are populated with 10 adult houseflies (Musca domestica).
After 2 days, the rate of extermination in % is determined. 100% means that all of the flies have been killed; 0% means that none of the flies have been killed.

The next test relates to Ctenocephalides felis. Briefly: Ctenocephalides felis oral test. The conditions noted are these: application rate 100 ppm in citrated cattle blood, after 2 days. The protocol:
Ctenocephalides felis—Oral Test
as §5
To produce a suitable active ingredient formulation, 10 mg of active ingredient are mixed with 0.5 ml of dimethyl sulfoxide. Dilution with citrated cattle blood gives the desired concentration.
About 20 unfed adult cat fleas (Ctenocephalides felis) are placed into a chamber which is closed at the top and bottom with gauze. A metal cylinder whose bottom end is closed with parafilm is placed onto the chamber. The cylinder contains the blood/active ingredient formulation, which can be imbibed by the fleas through the parafilm membrane.
After 2 days, the rate of extermination in % is determined. 100% means that all of the fleas have been killed; 0% means that none of the fleas have been killed.

Another test deals with Boophilus microplus. The test can be described thus: Boophilus microplus injection test. The conditions noted are these: application rate 20 μg/animal, assessed after 7 days by laying of fertile eggs. The protocol: Boophilus microplus—Injection Test
as §5
To produce a suitable active compound preparation, 10 mg of active compound are mixed with 0.5 ml of solvent and the concentrate is diluted to the desired concentration with solvent.
1 μl of the active ingredient solution is injected into the abdomen of 5 engorged adult female cattle ticks (Boophilus microplus). The animals are transferred into dishes and kept in a climate-controlled room.
Efficacy is assessed after 7 days by laying of fertile eggs. Eggs which are not visibly fertile are stored in a climate-controlled cabinet until the larvae hatch after about 42 days. An efficacy of 100% means that none of the ticks has laid any fertile eggs; 0% means that all the eggs are fertile.

The next test deals with Lucilia cuprina. Briefly: Lucilia cuprina test. Conditions: application rate 100 ppm, L1 larvae, after 2 days. The protocol:
as §5, §6
About 20 L1 larvae of the Australian sheep blowfly (Lucilia cuprina) are transferred into a test vessel containing minced horsemeat and the active compound preparation of the desired concentration.
After 2 days, the rate of extermination in % is determined. 100% means that all the larvae have been killed; 0% means that no larvae have been killed.

A further test deals with Tetranychus urticae. Briefly: Tetranychus urticae spray test, OP-resistant (TETRUR). Conditions: spray, after 6 days. The protocol:
Tetranychus urticae—Spray Test, OP-Resistant
as §3
Discs of bean leaves (Phaseolus vulgaris) infested with all stages of the greenhouse red spider mite (Tetranychus urticae) are sprayed with an active compound preparation of the desired concentration.
After 6 days, the efficacy in % is determined. 100% means that all the spider mites have been killed; 0% means that no spider mites have been killed.
Tetranychus urticae—Spray Test; OP-Resistant (TETRUR)
as §4
Discs of bean leaves (Phaseolus vulgaris) infested with all stages of the greenhouse red spider mite (Tetranychus urticae) are sprayed with an active compound formulation of the desired concentration.
After the desired time, the efficacy in % is determined. 100% means that all the spider mites have been killed; 0% means that no spider mites have been killed.

One may read the mortality as the percentage killed. On to `Cn1c(C(=O)NC2CC2)cc(-c2cnn(-c3c(Cl)cc(C(F)(C(F)(F)F)C(F)(F)F)cc3Cl)c2)c1Cl` [I-T1-9, 5-chloro-N-cyclopropyl-4-{1-[2,6-dichloro-4-(1,1,1,2,3,3,3-heptafluoropropan-2-yl)phenyl]-1H-pyrazol-4-yl}-1-methyl-1H-pyrrole-2-carboxamide], for which the mortality at 100 mg/m2 in test [1], in test [2] and in test [3] was 80 to 100% each time. The pest or weed control at 100 g/ha in the test on Phaedon cochleariae and with Spodoptera frugiperda was 100% in each case.

For the compound `N#CC1(NC(=O)c2csc(-c3cnn(-c4c(Cl)cc(C(F)(C(F)(F)F)C(F)(F)F)cc4Cl)c3)c2)CC1` [I-T1-13, N-(1-cyanocyclopropyl)-5-{1-[2,6-dichloro-4-(1,1,1,2,3,3,3-heptafluoropropan-2-yl)phenyl]-1H-pyrazol-4-yl}thiophene-3-carboxamide], the mortality at 100 mg/m2 in test [2] is 80 to 100%. Besides, the “efficacy (rate of extermination)” value with Musca domestica, with Ctenocephalides felis and with Lucilia cuprina was 100% each time. The pest or weed control at 100 g/ha in the test with Phaedon cochleariae and in the test on Spodoptera frugiperda was 100% throughout. Besides, the results for the efficacy with Boophilus microplus, with Tetranychus urticae (application rate 20 g/ha) and in the test on Tetranychus urticae (application rate 100 g/ha) were 100%, 90% and 100%, respectively.
